{
  "source": "patent US3958013A",
  "about": "“Halogenated cyclobutyl ether anesthetics” (W. R. Grace & Co., priority 1975, dated 1976)",
  "key": {"[1]": {"conditions": "cited from earlier work; for anesthetic properties / utility: prior art statement (fluorocyclobutanes: Larsen 1969 review)"}, "mice": {"tested_on": "mice", "assay": "standard test for evaluation of inhalation anesthetics in mice (rotating drum, 10 min exposure)", "assay_type": "in vivo", "conditions": "mice, inhalation, 10 minutes exposure, rotating drum; % volume", "method": "(§1) In this test, mice were exposed to the compound for a period of 10 minutes in a rotating drum. Observations were made of the pinch reflex, the corneal reflex and the return of the righting reflex. At least four graded doses were employed to determine the minimum concentration required to anesthetized 50% of the mice (AC50) and the minimum concentration required to kill 50% of the mice (LC50). The anesthetic index (AI) was then calculated from these minimum concentrations."}, "[2]": {"assay": "standard test for evaluation of inhalation anesthetics in mice (rotating drum, 10 min exposure)", "assay_type": "in vivo", "conditions": "mouse, in vivo, inhaled or intranasal; calculated from AC50 and LC50 minimum concentrations; read-out: AI (anesthetic index)", "method": "as §1"}},
  "data": [
    {"molecule": "FC1(F)C(F)(F)C(F)(Cl)C1(F)Cl", "note": "(centres unmarked) [1,2-dichlorohexafluoro-]", "values": [
      {"measurement": "toxicity", "setting": "[1]; Larsen 1969 review", "value": "toxic"}
    ]},
    {"molecule": "FC1C(F)C(F)(F)C1(F)F", "note": "(centres unmarked) [1,2-dihydrohexafluoro-]", "values": [
      {"measurement": "anesthetic properties / utility", "setting": "[1]", "value": "possesses anesthetic properties"}
    ]},
    {"molecule": "COC1(F)C(F)(F)C(F)(F)C1(F)Cl", "note": "(centres unmarked) [Example 1, 1-chloro-2-methoxy-1,2,3,3,4,4-hexafluorocyclobutane]", "values": [
      {"measurement": "LC50 (minimum concentration required to kill 50% of the mice)", "setting": "mice", "value": "7-8%"},
      {"measurement": "selectivity ratio at 10 min", "setting": "[2]", "value": "~2"}
    ]},
    {"molecule": "COC1CC(F)(F)C1(F)Cl", "note": "(centres unmarked) [Example 2, 1-chloro-2methoxy-1,4,4-trifluorocyclobutane]", "values": [
      {"measurement": "LC50 (minimum concentration required to kill 50% of the mice)", "setting": "mice", "value": "> 2", "unit": "%"},
      {"measurement": "selectivity ratio at 10 min", "setting": "[2]", "value": "> 2"}
    ]},
    {"molecule": "COC1(F)C(F)(F)C(F)(F)C1(F)Br", "note": "(centres unmarked) [Example 3, 1-bromo-2-methoxy-1,2,3,3,4,4-hexafluorocyclobutane]", "values": [
      {"measurement": "LC50 (minimum concentration required to kill 50% of the mice)", "setting": "mice", "value": "> 2.5", "unit": "%"},
      {"measurement": "selectivity ratio at 10 min", "setting": "[2]", "value": "> 2.5"}
    ]},
    {"molecule": "C1CCCC1", "note": "[cyclopentane]", "values": [
      {"measurement": "anesthetic properties / utility", "setting": "[1]", "value": "no medical utility"}
    ]},
    {"molecule": "C1CC1", "note": "[cyclopropane]", "values": [
      {"measurement": "anesthetic properties / utility", "setting": "[1]", "value": "effective if inflammable anesthetic"}
    ]},
    {"molecule": "FC1(F)C(F)(F)C(F)(F)C1(F)F", "note": "[octafluoro-]", "values": [
      {"measurement": "anesthetic properties / utility", "setting": "[1]", "value": "inactive"}
    ]}
  ]
}
